Inconclusive results are not listed.

This experiment deals with M. tuberculosis H37Rv growth inhibition, 7H9 media. The experiment in a line: M. tuberculosis growth inhibition, HTS (AID 449762).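 On all read-outs here: bacterial growth assessed after seven days of incubation.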 The note with it: for IC90: measured here: IC90 growth inhibition.

As usually defined, the IC50 is the point on the concentration scale where inhibition reaches its midpoint. One may read the IC90 as the point of the concentration-response curve where the effect stands at 90%. Read a high IC90 as a need for much substance. Consider `OC(CN1CCN(c2ccccn2)CC1)Cn1c2ccccc2c2ccccc21` (configuration not stated), for which the IC50 was 36.1 µM and the IC90 turned out to be 51.7 µM.
For `CC(C)CNc1nnnc2c1sc1nc(N3CCOCC3)c3c(c12)CC(C)(C)SC3`, the half-maximal inhibitory concentration (IC50) was 74 µM and the concentration for an effect of 90% (IC90) was > 100 µM.
In the same order, the values of `Cc1ccc(C)c(S(=O)(=O)N2CCC(c3nc4c(nnn4Cc4ccc5c(c4)OCCO5)c(=O)[nH]3)CC2)c1` are 23.1 µM and > 100 µM.
As to `CCN(CC)S(=O)(=O)c1ccc2[nH]cc(C(=O)NCCC3=CCCCC3)c(=O)c2c1`, the concentration for half-maximal inhibition (IC50) is 40.7 µM and the IC90 was > 100 µM.
The like results for `O=C(CSC1=Nc2ccccc2C2=NC(c3ccccc3)C(=O)N12)NC1CCCCC1` (configuration not stated) were, in that order, 0.66 µM and 1.29 µM.
In the same order, the values of `O=C(NN=C1c2ccccc2-c2ccccc21)c1cccc(Br)c1` are 0.28 µM and > 100 µM.
Regarding `CC(C)(C)c1ccc(C(=O)CSc2n[nH]c(=O)[nH]c2=O)cc1`, the half-inhibitory concentration (IC50) is 7.69 µM and the IC90 is 25.4 µM.
Consider `CN1CCN(c2ccc(S(=O)(=O)N3CCCCC3)cc2NC(=O)/C=C/c2ccc(Cl)c([N+](=O)[O-])c2)CC1`, for which the IC50 is 30.4 µM and the concentration for an effect of 90% (IC90) amounted to 38.7 µM.
Consider `Cc1ccnc(N2CCC(C(=O)Nc3cccc(C(F)(F)F)c3)CC2)n1`, for which the IC50 was 47.5 µM and the 90% effect concentration (IC90) was > 100 µM.
Turning to `Cc1cc(=O)n2[nH]c(Nc3cccc(Cl)c3)nc2n1`, the concentration for half-maximal inhibition (IC50) is 20.4 µM and the concentration for an effect of 90% (IC90) worked out at 33 µM.
Take `COc1ccc(SN=C2C(C)=CC(=O)C=C2C)cc1`: the half-maximal inhibitory concentration (IC50) is 11.9 µM and the 90% effect concentration (IC90) is 13.5 µM.
For `COc1ccc(N2C(=O)C(Cl)=C(Nc3ccccc3O)C2=O)cc1`, the IC50 is 14.2 µM and the concentration for an effect of 90% (IC90) came to 25.7 µM.
Consider `CCOc1ccc(N2CCc3c(C)nc(SC)nc32)cc1`, for which the IC50 is < 0.2 µM and the IC90 is > 100 µM.
On to `CCc1ccc(NC2=NCC(c3ccccc3)S2)cc1` (configuration not stated), for which the half-inhibitory concentration (IC50) was 3.03 µM and the IC90 is > 100 µM.
Regarding `Cc1ccccc1Cn1cc(NC(=O)c2noc(C(C)C)c2[N+](=O)[O-])cn1`, the IC50 was 5.11 µM and the concentration for an effect of 90% (IC90) worked out at 8.72 µM.
For `O=C(NCc1nnnn1-c1ccc(F)cc1)c1ccc([N+](=O)[O-])o1`, the half-inhibitory concentration (IC50) was 16.5 µM and the IC90 came out at 74.1 µM.
Regarding `C/C(CC(=O)Nc1ccc(C)c(Cl)c1)=N\NC(=O)Cc1cnc(N)s1`, the IC90 was > 100 µM.
As to `Cc1sc2ncnc(Oc3ccc(-n4ccnc4)cc3)c2c1C`, the IC50 was 33.3 µM and the IC90 was 55.5 µM.
On to `N=C1C(c2nc3ccccc3[nH]2)=C(O)CN1NC(=O)c1c[nH]c2ccccc12`, for which the IC50 was 13.5 µM and the IC90 stood at 30.7 µM.
On to `CCOC(=O)CSc1nnc(-c2c[nH]c3ccccc23)o1`, for which the IC50 is 0.59 µM and the IC90 was > 100 µM.
The like results for `CCC1C(c2ccccc2)N(C)C(c2ccccc2)CC1(O)c1ccccc1` (configuration not stated) were, in that order, 23.2 µM and 25.5 µM.
`COc1ccc(N2CCN(C(=O)c3ccc(CNc4c(N5CCOCC5)c(=O)c4=O)cc3)CC2)cc1`: the IC50 was 2.42 µM and the IC90 was found to be 5.17 µM.
The like results for `CC(CC(=O)Nc1ccc(Cl)c([N+](=O)[O-])c1)c1ccccc1` (configuration not stated) were, in that order, 16 µM and 40.7 µM.
Take `O=C(CSc1nc2ncc(Br)cc2[nH]1)Nc1ccc2c(c1)OCO2`: the concentration for half-maximal inhibition (IC50) was 6.01 µM and the IC90 is 16.1 µM.
Regarding `C#CCCc1cscc1/C=[N+](\[O-])c1ccc(C(=O)OCC)cc1`, the IC50 was 99.1 µM and the IC90 is > 100 µM.
In the same order, the values of `CCOc1ccc(C(=O)CCN2CCCCCC2)cc1` are 11.9 µM and 17.4 µM.
For the molecule `COc1ccc(-c2ccnc3nc(N4CCN(c5ccccc5)CC4)nn23)cc1`, the half-maximal inhibitory concentration (IC50) was 36.4 µM and the 90% effect concentration (IC90) was 47.9 µM.
For `COc1cc(NC(=O)c2cccs2)c(C(=O)OCC(=O)NCc2ccco2)cc1OC`, the IC50 is 23.9 µM and the IC90 is > 100 µM.
Regarding `Cc1cc(C2=NNC(=NC3CCCCC3)SC2)c(C)n1-c1c(C)n(C)n(-c2ccccc2)c1=O`, the IC50 was 88.2 µM and the IC90 is > 100 µM.
`Cc1ccc(-n2nc3c(N4CCC(C(=O)NCc5ccccc5C)CC4)nnc(C)c3c2C)cc1`: the IC50 was 46.9 µM and the 90% effect concentration (IC90) stood at 69 µM.
For `O=C(COC(=O)C1CC2CCCC(C1)C2=O)NNC(=O)c1ccccc1F` (configuration not stated), the 50% inhibitory concentration (IC50) was 9.47 µM and the concentration for an effect of 90% (IC90) is > 100 µM.
For `Cc1csc(NC(=S)Nc2cccc(Cl)c2)n1`, the IC50 is 2.76 µM and the IC90 came out at 6.01 µM.
In the case of `O=C(c1ccccc1)C1CN(Cc2ccccc2)CCC1(O)c1ccccc1` (configuration not stated), the concentration for half-maximal inhibition (IC50) is 9.4 µM and the IC90 came out at 14.6 µM.
On to `CCCn1c(=N)c(C(=O)NCc2ccc3c(c2)OCO3)cc2c(=O)n3cccc(C)c3nc21`, for which the half-maximal inhibitory concentration (IC50) is 19.8 µM and the IC90 is 29 µM.
Consider `COc1ccc(C2CC(=O)C3=C(C2)NC(C)=C(C#N)C3c2ccc(N(C)C)cc2)cc1` (configuration not stated), for which the IC50 is 19.6 µM and the IC90 was determined as 33 µM.
As for `CC1(C)CC(=O)c2c(O)cc(OCc3ccc(Br)cc3)cc2O1`, the half-inhibitory concentration (IC50) was 42 µM and the concentration for an effect of 90% (IC90) came to 67.3 µM.
Turning to `O=C(CN1CCN(Cc2ccc(Cl)cc2)CC1)N/N=C/C=C/c1ccccc1[N+](=O)[O-]`, the IC50 is 26.8 µM and the IC90 is 37.6 µM.
As to `CCN1C(N(C)CCc2c[nH]c3ccccc23)=N[C@@H](c2cccc(C(F)(F)F)c2)C(C(=O)OC)=C1C`, the IC50 is 21.5 µM and the IC90 turned out to be 23.7 µM.
The like results for `CCc1nnc(NC(=O)CN2CCN(c3nc(-c4ccccc4)cs3)CC2)s1` were, in that order, 45.8 µM and 52.4 µM.
Regarding `COc1ccc(OC)c(C(=O)NC(CC(N)=O)c2ccc(NCc3ccc(F)c(F)c3)c([N+](=O)[O-])c2)c1` (configuration not stated), the IC50 is 5.38 µM and the IC90 is 23.6 µM.
The like results for `O=c1oc2ccccc2c2c1nc(C(F)(F)F)n2-c1ccccc1` were, in that order, 4.39 µM and 31.1 µM.
In the case of `Cc1ccc(NC(=O)c2ccc(CSc3nnc(C)s3)cc2)c(C)c1`, the half-inhibitory concentration (IC50) is 17.4 µM and the 90% effect concentration (IC90) is > 25 µM.
On to `Oc1cc(NCc2cccnc2)ccc1-c1nc2ccccc2o1`, for which the IC50 was 12.6 µM and the IC90 was 44.4 µM.
Consider `C=CCS/C(N)=N\N=C\c1c(O)ccc2ccccc12`, for which the IC50 is 12.2 µM and the 90% effect concentration (IC90) was 48.6 µM.
With `O=C1C(Br)=Cc2cccc3cccc1c23`, the concentration for half-maximal inhibition (IC50) was < 0.2 µM and the IC90 is < 0.2 µM.
Turning to `Cc1ccc(NC(=O)COC(=O)C(NS(=O)(=O)c2ccc(Cl)cc2)C(C)O)cc1C` (configuration not stated), the IC50 was 2.17 µM and the concentration for an effect of 90% (IC90) came out at 8.97 µM.
As to `Oc1ccccc1NCC(O)Cn1ccc2ccccc21` (configuration not stated), the IC50 was 5.37 µM and the concentration for an effect of 90% (IC90) turned out to be 8.32 µM.
With `CCOC(=O)N1CCc2c(sc(NC(=O)c3ccc(Cl)s3)c2C(N)=O)C1`, the IC50 was 6.17 µM and the 90% effect concentration (IC90) is 20.5 µM.
Turning to `Cc1ccc(C(=O)Nc2ccc3c4c(cccc24)CC3)cc1[N+](=O)[O-]`, the half-inhibitory concentration (IC50) was < 0.2 µM and the IC90 is > 100 µM.
On to `Cc1cc(C(=O)N/N=C\C(Br)=C\c2ccccc2)c(C)o1`, for which the IC50 is 38.5 µM and the 90% effect concentration (IC90) is 53.8 µM.
As for `CCOc1ccc(NC(=O)CSc2cn[nH]n2)cc1`, the IC50 was 57.1 µM and the 90% effect concentration (IC90) was > 100 µM.
As to `COc1ccccc1C1CC(c2ccc(Cl)cc2)Nc2ncnn21` (configuration not stated), the half-inhibitory concentration (IC50) was 11 µM and the IC90 is 17.7 µM.
In the same order, the values of `COc1ccc(NC(C)C(=O)Nc2ccc(C(C)(C)C)cc2)cc1Cl` (configuration not stated) are 86.1 µM and > 100 µM.
For `S=C1SCN(Cc2ccco2)CN1Cc1ccco1`, the IC50 is 32.7 µM and the IC90 amounted to 52.3 µM.
Regarding `CC(Oc1ccc(F)cc1)C(=O)Nc1sc2c(c1C(=O)NCc1cccnc1)CCCC2` (configuration not stated), the half-maximal inhibitory concentration (IC50) is 45 µM and the IC90 came out at 52.5 µM.
Regarding `CCOC(=O)c1[nH]c(CN2CCN(c3ccc(OC)cc3)CC2)c(C(=O)OCC)c1C`, the IC50 is 23 µM and the IC90 turned out to be 26 µM.
Take `Cc1nc(SCC(=O)NC2CCCCC2)[nH]c(=O)c1C`: the concentration for half-maximal inhibition (IC50) was < 0.2 µM and the IC90 was < 0.2 µM.
Regarding `O=C(Nc1ccc2nsnc2c1)NC1CCCCC1`, the IC50 was 26 µM and the 90% effect concentration (IC90) is > 50 µM.
In the same order, the values of `Cc1cc(Cl)ccc1OCCCC(=O)NO` are 17.6 µM and > 100 µM.
The like results for `CCCCCC(=O)Nc1cccc2ccccc12` were, in that order, 14.1 µM and > 100 µM.
On to `CCCCCc1nc2c(c(=O)c3ccccc3n2C)c(=O)n1C1CCCCCC1`, for which the IC50 was 30 µM and the concentration for an effect of 90% (IC90) was > 100 µM.
As to `Cc1cc(C)n(-c2ccc(C(=O)Oc3ccc4c(c3)OCO4)cc2)n1`, the IC50 is 4.02 µM and the IC90 amounted to 13.3 µM.
For `CCOC(=O)CNC(=O)c1sc2ncnc(N3CCc4ccccc4C3)c2c1C`, the IC50 was 53.2 µM and the 90% effect concentration (IC90) was > 100 µM.
For the molecule `CCCOC(=O)CSc1nc(N2CCOCC2)c2c(c1C#N)CC(C)(C)OC2`, the 50% inhibitory concentration (IC50) is 21.8 µM and the concentration for an effect of 90% (IC90) worked out at 37.4 µM.
Take `CCCNC(=O)NC(=O)COc1ccc2oc3ccccc3c2c1`: the IC90 is > 100 µM.
In the case of `CCCCN(CCCC)CCC(O)c1cc2c(Cl)cc(Cl)cc2c2cc(C(F)(F)F)ccc12` (configuration not stated), the IC50 was 16.6 µM and the IC90 was 25.7 µM.
In the case of `CCOc1ccc(-c2cnc(NCc3cccc4ccccc34)n2CCOC)cc1`, the IC50 is 5.56 µM and the 90% effect concentration (IC90) came to 8.14 µM.
On to `CN(C)c1ccc(N=Nc2ccccc2C(=O)OCC(=O)NCC2CCCCC2)cc1`, for which the 50% inhibitory concentration (IC50) was 11 µM and the concentration for an effect of 90% (IC90) turned out to be 13.1 µM.
For `Cc1ccc(S(=O)(=O)NC(CC(C)C)C(=O)N2CCN(C/C=C/c3ccccc3)CC2)cc1` (configuration not stated), the IC50 was 46.8 µM and the IC90 amounted to 52.7 µM.
With `CC1CCN(C(=O)c2ccc(-c3ccccc3Cl)o2)CC1`, the half-maximal inhibitory concentration (IC50) is 17.9 µM and the 90% effect concentration (IC90) was 65.8 µM.
Turning to `CCSc1ncc(/C=N/Nc2ccccc2)n1C`, the IC50 was 89.3 µM and the concentration for an effect of 90% (IC90) was > 100 µM.
In the case of `COc1ccc(C(CCNCc2ccc(OC(C)C)cc2)C(C)C)cc1` (configuration not stated), the IC50 was 23.3 µM and the concentration for an effect of 90% (IC90) was determined as 26.9 µM.

The values above are taken from PubChem BioAssay AID449762 (Southern Research Specialized Biocontainment Screening …, 2010).
